A word on the MIC: it is the least concentration at which growth counts as inhibited.

Results on 1 compound are retold here after ChEMBL document CHEMBL5584236, “Development of novel bisphenol derivatives with a membrane-targeting mechanism as potent gram-positive antibacterial agents” (Eur J Med Chem, 2024).

Each structure is given as a SMILES string. Calls of active or inactive are those of the source. The calls are words filed in the database; no cut-off is given here.

In experiment [1] the test system is Staphylococcus aureus. As to the kind of experiment: Antibacterial activity against Staphylococcus aureus ATCC29213 assessed as reduction in microbial growth incubated for 22 to 24 hrs by CLSI based broth microdilution method. The format is functional. The conditions noted are these: time 22-24 hrs. (Dilution methods test growth across graded concentrations, often in twofold steps.)

For experiment [2], the system named is Staphylococcus aureus. Briefly: Antibacterial activity against methicillin-resistant Staphylococcus aureus NCTC10442 assessed as reduction in bacterial growth incubated for 22 to 24 hrs in presence of KCl by CLSI based broth microdilution method. The format is functional. The conditions noted are these: time 22-24 hrs.
Experiment [3] deals with Staphylococcus aureus. Briefly: Disruption of cell membrane integrity in methicillin-resistant Staphylococcus aureus NCTC10442 assessed as increase in red fluorescence at 8 time of MIC measured after 15 mins by SYTO 9/PI staining based laser confocal microscopic analysis. The format is functional, organism-based.
Experiment [4] deals with Staphylococcus aureus. As to the kind of experiment: Antibacterial activity against methicillin-resistant Staphylococcus aureus NCTC10442 assessed as reduction in bacterial growth incubated for 22 to 24 hrs in presence of NaCl by CLSI based broth microdilution method. Particulars: time 22-24 hrs. The format is functional.
Experiment [5] concerns Staphylococcus aureus. Briefly: Antibacterial activity against methicillin-resistant Staphylococcus aureus NCTC10442 assessed as reduction in bacterial growth incubated for 22 to 24 hrs in presence of FeCl3 by CLSI based broth microdilution method. Format: functional. The conditions noted are these: time 22-24 hrs.
For experiment [6], the system named is Staphylococcus aureus. Briefly: Antibacterial activity against methicillin-resistant Staphylococcus aureus N315 assessed as reduction in bacterial growth incubated for 22 to 24 hrs in presence of KCl by CLSI based broth microdilution method. The format is functional. Particulars: time 22-24 hrs.
Experiment [7] concerns Staphylococcus aureus. Briefly: Synergistic […] activity against Staphylococcus aureus ATCC29213 assessed as fractional inhibitory concentration index incubated for 22 to 24 hrs in presence of tobramycin by CLSI based broth microdilution method. Format: functional. The conditions noted are these: time 22-24 hrs.
The test system of experiment [8] is Klebsiella pneumoniae. As to the kind of experiment: Synergistic […] activity against Klebsiella pneumoniae ATCC10031 assessed as fractional inhibitory concentration index incubated for 22 to 24 hrs in presence of tobramycin by CLSI based broth microdilution method. The format is functional. Particulars: time 22-24 hrs.
Experiment [9] concerns Staphylococcus aureus. As to the kind of experiment: Antibacterial activity against methicillin-resistant Staphylococcus aureus N315 assessed as reduction in bacterial growth incubated for 22 to 24 hrs in presence of NaCl by CLSI based broth microdilution method. The conditions noted are these: time 22-24 hrs. The format is functional.
Experiment [10] deals with Klebsiella pneumoniae. As to the kind of experiment: Synergistic […] activity against Klebsiella pneumoniae ATCC10031 assessed as fractional inhibitory concentration index incubated for 22 to 24 hrs in presence of levofloxacin by CLSI based broth microdilution method. Format: functional. Particulars: time 22-24 hrs.
Experiment [11] concerns Staphylococcus aureus. As to the kind of experiment: Antibacterial activity against Staphylococcus aureus ATCC25923 assessed as reduction in microbial growth incubated for 22 to 24 hrs by CLSI based broth microdilution method. The conditions noted are these: time 22-24 hrs. The format is functional.
Experiment [12] has as its system Acinetobacter baumannii. Briefly: Synergistic […] activity against Acinetobacter baumannii ATCC17978 assessed as fractional inhibitory concentration index incubated for 22 to 24 hrs in presence of gentamicin by CLSI based broth microdilution method. Particulars: time 22-24 hrs. The format is functional.

With `COC(=O)[C@H](CCCNC(=N)N)NC(=O)[C@H](CCCNC(=N)N)NC(=O)COc1ccc(S(=O)(=O)c2ccc(OC/C=C(/C)CCC=C(C)C)cc2)cc1`, the MIC in experiment [1], in experiment [2], in experiment [4], in [5], in experiment [6] and in [9] was 1.56 µg/mL in each case. Besides, the MIC in experiment [11] was 3.12 µg/mL. Moreover, the result in [3] was Active. Also, the “fractional inhibitory concentration index (FICI)” value in experiment [7] was found to be 0.38; in experiment [8], 0.375; in experiment [10], 0.56; in experiment [12], 0.28.
